# Results taken from PMC8102066 (eLife, 2021).
# Values joined by “and” are separate entries in the source; they are usually repeats but may differ in a detail not shown here. Equal values may be shown once. Read-outs that look alike come from different tables or passages of the source.
# Key:
# mGluR3-S686A = mGluR3-S686A (Rattus norvegicus, UniProt P31422, S686A); experiment: Calcium imaging in HEK 293 T cells
# mGluR3-F690A = mGluR3-F690A (Rattus norvegicus, UniProt P31422, F690A); experiment: Calcium imaging in HEK 293 T cells; settings: for Calcium response amplitude: mGluR3-F681A
# Sequence of mGluR3-F690A (P31422 23-879 F690A): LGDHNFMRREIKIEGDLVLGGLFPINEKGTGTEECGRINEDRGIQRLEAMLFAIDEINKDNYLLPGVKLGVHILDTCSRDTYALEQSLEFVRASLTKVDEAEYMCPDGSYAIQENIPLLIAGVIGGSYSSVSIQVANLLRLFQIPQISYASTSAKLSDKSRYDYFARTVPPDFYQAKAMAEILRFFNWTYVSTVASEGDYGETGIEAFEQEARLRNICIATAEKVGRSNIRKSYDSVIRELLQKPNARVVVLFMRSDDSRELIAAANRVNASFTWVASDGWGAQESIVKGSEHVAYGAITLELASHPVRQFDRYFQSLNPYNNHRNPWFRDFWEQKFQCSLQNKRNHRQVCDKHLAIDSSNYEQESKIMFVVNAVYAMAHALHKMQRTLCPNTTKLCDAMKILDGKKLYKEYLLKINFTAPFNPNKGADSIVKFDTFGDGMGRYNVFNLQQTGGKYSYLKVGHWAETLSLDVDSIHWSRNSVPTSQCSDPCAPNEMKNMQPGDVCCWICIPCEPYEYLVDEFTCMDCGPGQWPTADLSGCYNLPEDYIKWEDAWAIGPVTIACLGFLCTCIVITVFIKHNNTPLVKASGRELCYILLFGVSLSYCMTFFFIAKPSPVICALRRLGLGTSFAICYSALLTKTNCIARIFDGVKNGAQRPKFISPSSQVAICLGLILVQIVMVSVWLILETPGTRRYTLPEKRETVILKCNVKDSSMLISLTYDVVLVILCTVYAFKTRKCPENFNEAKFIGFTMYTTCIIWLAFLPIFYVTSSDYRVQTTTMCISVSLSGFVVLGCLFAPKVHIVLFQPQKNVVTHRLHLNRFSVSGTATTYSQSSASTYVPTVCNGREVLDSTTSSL
# mGluR3-G694A = mGluR3-G694A (Rattus norvegicus, UniProt P31422, G694A); experiment: Calcium imaging in HEK 293 T cells; settings: for Calcium response amplitude: mGluR3-G694A
# Sequence of mGluR3-G694A (P31422 23-879 G694A): as the sequence (P31422 23-879 F690A) above, with A668F, G672A counted along it
# mGluR2 [1] = target: mGluR2 (Rattus norvegicus, UniProt P31421); experiment: Inter-LBD FRET (N-terminal SNAP-tags), live cells; settings: mGluR2, inter-LBD FRET
# Sequence of mGluR2 (Rattus norvegicus, UniProt P31421) (P31421 19-872): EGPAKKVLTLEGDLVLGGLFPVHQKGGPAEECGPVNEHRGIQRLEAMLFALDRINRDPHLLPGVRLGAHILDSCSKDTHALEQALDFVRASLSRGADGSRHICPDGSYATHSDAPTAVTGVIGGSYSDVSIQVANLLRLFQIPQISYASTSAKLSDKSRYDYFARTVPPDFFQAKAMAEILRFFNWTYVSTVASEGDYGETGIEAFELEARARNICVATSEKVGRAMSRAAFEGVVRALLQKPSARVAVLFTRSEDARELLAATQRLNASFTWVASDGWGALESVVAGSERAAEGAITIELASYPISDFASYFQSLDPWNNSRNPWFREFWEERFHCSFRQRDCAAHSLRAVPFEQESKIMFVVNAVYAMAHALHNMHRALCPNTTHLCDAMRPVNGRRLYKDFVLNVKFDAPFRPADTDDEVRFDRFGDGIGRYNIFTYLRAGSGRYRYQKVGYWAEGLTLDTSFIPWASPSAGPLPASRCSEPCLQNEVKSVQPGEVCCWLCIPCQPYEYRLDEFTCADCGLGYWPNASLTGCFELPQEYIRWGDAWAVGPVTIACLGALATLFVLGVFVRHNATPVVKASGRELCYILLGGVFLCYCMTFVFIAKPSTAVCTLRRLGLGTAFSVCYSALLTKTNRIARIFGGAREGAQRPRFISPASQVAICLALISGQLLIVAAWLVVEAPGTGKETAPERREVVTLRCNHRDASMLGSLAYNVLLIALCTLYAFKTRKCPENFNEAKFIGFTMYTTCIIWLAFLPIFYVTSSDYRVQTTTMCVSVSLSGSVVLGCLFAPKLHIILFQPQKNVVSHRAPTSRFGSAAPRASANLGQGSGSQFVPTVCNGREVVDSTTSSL
# mGluR2 [2] = target: mGluR2 (Rattus norvegicus, UniProt P31421, INS660ASEIGTGFPFDPHYVEVLGERMHYVDVGPRDGTPVLFLHGNPTSSYVWRNIIPHVAPTHRCIAPDLIGMGKSDKPDLGYFFDDHVRFMDAFIEALGLEEVVLVIHDWGSALGFHWAKRNPERVKGIAFMEFIRPIPTWDEWPEFARETFQAFRTTDVGRKLIIDQNVFIEGTLPMGVVRPLTEVEMDHYREPFLNPVDREPLWRFPNELPIAGEPANIVALVEEYMDWLHQSPVPKLLFWGTPGVLIPPAEAARLAKSLPNCKAVDIGPGLNLLQEDNPDLIGSEIARWLSTLEISGLE); experiment: Inter-TMD FRET sensor (HaloTag in ICL2), live cells; settings: mGluR2, inter-TMD FRET
# Sequence of UniProt P31421 (P31421 with tags, fused parts or gaps with the stated changes): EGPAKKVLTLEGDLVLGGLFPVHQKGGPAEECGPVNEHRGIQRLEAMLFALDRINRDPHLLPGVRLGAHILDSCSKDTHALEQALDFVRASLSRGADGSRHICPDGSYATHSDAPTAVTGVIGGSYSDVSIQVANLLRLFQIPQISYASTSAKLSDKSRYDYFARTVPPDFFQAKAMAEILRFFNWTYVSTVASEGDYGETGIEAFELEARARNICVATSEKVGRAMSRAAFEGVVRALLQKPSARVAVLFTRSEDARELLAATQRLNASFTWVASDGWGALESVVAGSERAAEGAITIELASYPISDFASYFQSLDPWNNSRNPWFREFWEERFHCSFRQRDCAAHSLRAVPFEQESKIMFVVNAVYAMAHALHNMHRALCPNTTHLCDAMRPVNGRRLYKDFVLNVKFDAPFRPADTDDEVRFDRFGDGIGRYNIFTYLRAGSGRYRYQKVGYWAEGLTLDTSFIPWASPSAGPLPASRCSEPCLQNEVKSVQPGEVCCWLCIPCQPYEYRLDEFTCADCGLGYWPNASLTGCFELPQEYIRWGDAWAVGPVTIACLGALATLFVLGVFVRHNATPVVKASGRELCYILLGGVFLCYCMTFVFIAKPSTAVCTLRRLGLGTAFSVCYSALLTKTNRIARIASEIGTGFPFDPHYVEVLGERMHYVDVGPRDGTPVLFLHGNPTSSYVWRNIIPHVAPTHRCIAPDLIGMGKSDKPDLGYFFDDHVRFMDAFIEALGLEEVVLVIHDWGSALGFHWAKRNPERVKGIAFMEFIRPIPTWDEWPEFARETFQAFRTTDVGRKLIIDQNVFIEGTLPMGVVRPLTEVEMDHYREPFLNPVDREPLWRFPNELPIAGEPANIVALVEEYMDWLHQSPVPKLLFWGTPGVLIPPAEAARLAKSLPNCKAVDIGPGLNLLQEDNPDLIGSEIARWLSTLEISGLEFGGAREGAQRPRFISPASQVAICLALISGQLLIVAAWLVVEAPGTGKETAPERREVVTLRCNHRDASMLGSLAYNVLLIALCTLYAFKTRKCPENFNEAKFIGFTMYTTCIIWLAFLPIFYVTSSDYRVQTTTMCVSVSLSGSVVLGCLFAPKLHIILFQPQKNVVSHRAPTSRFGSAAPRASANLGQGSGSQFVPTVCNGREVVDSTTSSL
# mGluR3-3xTM4 = mGluR3-3xTM4 (Rattus norvegicus, UniProt P31422, F690A/G694A/INS669ASEIGTGFPFDPHYVEVLGERMHYVDVGPRDGTPVLFLHGNPTSSYVWRNIIPHVAPTHRCIAPDLIGMGKSDKPDLGYFFDDHVRFMDAFIEALGLEEVVLVIHDWGSALGFHWAKRNPERVKGIAFMEFIRPIPTWDEWPEFARETFQAFRTTDVGRKLIIDQNVFIEGTLPMGVVRPLTEVEMDHYREPFLNPVDREPLWRFPNELPIAGEPANIVALVEEYMDWLHQSPVPKLLFWGTPGVLIPPAEAARLAKSLPNCKAVDIGPGLNLLQEDNPDLIGSEIARWLSTLEISGLE/S686A); experiment: as above; settings: for FRET response amplitude: mGluR3-3xTM4, inter-TMD FRET
# Sequence of mGluR3-3xTM4 (P31422 with tags, fused parts or gaps with the stated changes): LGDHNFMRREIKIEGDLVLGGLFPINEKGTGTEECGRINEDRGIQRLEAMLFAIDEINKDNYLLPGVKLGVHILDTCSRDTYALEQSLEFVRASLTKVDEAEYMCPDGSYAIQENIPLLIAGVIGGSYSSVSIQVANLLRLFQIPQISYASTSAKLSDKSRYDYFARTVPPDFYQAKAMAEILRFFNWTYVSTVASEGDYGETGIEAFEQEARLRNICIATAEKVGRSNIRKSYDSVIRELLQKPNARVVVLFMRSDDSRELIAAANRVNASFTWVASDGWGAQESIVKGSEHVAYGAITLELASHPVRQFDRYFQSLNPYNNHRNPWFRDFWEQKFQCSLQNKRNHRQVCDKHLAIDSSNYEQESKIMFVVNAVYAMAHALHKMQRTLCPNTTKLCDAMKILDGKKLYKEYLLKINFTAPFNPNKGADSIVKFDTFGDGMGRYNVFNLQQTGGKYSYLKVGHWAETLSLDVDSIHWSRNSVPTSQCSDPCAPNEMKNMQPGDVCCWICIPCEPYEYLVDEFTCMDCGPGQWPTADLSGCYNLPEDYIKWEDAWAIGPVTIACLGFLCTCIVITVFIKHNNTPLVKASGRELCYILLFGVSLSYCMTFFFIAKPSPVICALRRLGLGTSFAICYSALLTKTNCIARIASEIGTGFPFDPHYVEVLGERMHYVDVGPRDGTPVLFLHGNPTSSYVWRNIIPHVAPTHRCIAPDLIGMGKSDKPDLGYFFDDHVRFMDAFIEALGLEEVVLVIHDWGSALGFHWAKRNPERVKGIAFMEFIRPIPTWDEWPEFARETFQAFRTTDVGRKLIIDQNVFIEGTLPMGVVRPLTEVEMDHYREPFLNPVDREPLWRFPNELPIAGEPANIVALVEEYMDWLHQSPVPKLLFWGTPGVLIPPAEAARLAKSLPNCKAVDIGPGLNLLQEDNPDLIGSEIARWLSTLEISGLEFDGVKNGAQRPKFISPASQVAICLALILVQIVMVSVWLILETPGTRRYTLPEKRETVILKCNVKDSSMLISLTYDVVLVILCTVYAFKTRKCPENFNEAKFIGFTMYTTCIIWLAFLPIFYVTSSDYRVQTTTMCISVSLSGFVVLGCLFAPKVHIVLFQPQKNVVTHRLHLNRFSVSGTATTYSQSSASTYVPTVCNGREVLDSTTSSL
# mGluR3-C127A-3xTM4 = mGluR3-C127A-3xTM4 (Rattus norvegicus, UniProt P31422, C127A/F690A/G694A/S686A); experiment: SiMPull subunit counting in the presence of ligands; settings: SNAP-mGluR3-C127A-3xTM4 in presence of the ligand; single replicates per experiment day
# Sequence of mGluR3-C127A-3xTM4 (P31422 23-879 C127A/S686A/F690A/G694A): as the sequence (P31422 23-879 F690A) above, with C105A, S664A, G672A counted along it
# mGluR3-C127A-I788A = mGluR3-C127A-I788A (Rattus norvegicus, UniProt P31422, C127A/I788A); experiment: as above
# Sequence of mGluR3-C127A-I788A (P31422 23-879 C127A/I788A): as the sequence (P31422 23-879 F690A) above, with C105A, A668F, I766A counted along it
# mGluR3-I788A [3] = target: T1, mGluR3-I788A (Rattus norvegicus, UniProt P31422, I788A); experiment: Inter-TMD FRET sensor (HaloTag in ICL2), live cells; type: cell-based; design: expressed in transfected cells; host or cells: HEK 293 T; FRET response amplitude: scale not given here; settings: for FRET response amplitude: inter-TMD FRET
# T1 sequence (P31422 23-879 I788A): as the sequence (P31422 23-879 F690A) above, with A668F, I766A counted along it
# Text: Next, we asked how perturbing the TM6 interface would alter the conformational dynamics detected by our TMD FRET sensors.
# mGluR3-I788A [4] = target: T1, mGluR3-I788A; experiment: Calcium imaging in HEK 293 T cells; type: cell-based; design: we performed calcium imaging experiments with mutations in the full-length mGluR2 background; expressed in transfected cells; host or cells: HEK 293 T; Calcium response amplitude: scale not given here; settings: for Calcium response amplitude: mGluR3-I788A
# Procedure: Approximately 30 ROIs were analyzed per movie.
# [5] = read-out: Glutamate EC50 (micromolar), calcium imaging, Fig 3F source data
# [6] = read-out: Glutamate EC50, calcium imaging, normalized to saturating (1 mM) glutamate
# [7] = read-out: Glutamate EC50, inter-TMD FRET, normalized to saturating (1 mM) glutamate, unit inferred
# Sequence of mGluR3-S686A (P31422 23-879 S686A): as the sequence (P31422 23-879 F690A) above, with S664A, A668F counted along it
compound,measurement,setting,value
N[C@@H](CCC(=O)O)C(=O)O [glutamate],EC50,mGluR3-S686A; [5],5.11 µM
same,EC50,mGluR3-S686A; [6],5.12 ± 0.06 µM
same,Calcium response amplitude,mGluR3-F690A; Glutamate 10 nM,0.00
same,Calcium response amplitude,mGluR3-F690A; Glutamate 100 nM,0.00
same,Calcium response amplitude,mGluR3-F690A; Glutamate 3 uM,0.33 and 0.27
same,Calcium response amplitude,mGluR3-F690A; Glutamate 10 uM,0.40 and 0.44 and 0.57 and 0.58
same,Calcium response amplitude,mGluR3-F690A; Glutamate 100 uM,1.00 and 0.86
same,Calcium response amplitude,mGluR3-F690A; Glutamate 1 mM,1.00
same,EC50,mGluR3-F690A; [6],9.59 ± 0.06 µM
same,Calcium response amplitude,mGluR3-G694A; Glutamate 10 nM,0.00
same,Calcium response amplitude,mGluR3-G694A; Glutamate 5 uM,0.50 and 0.59 and 0.67
same,Calcium response amplitude,mGluR3-G694A; Glutamate 10 uM,0.98
same,Calcium response amplitude,mGluR3-G694A; Glutamate 100 uM,1.00
same,Calcium response amplitude,mGluR3-G694A; Glutamate 1 mM,1.00
same,EC50,mGluR3-G694A; [5],4.65 µM
same,EC50,mGluR3-G694A; [6],4.66 ± 0.03 µM
same,FRET response amplitude,mGluR2 [1]; Glutamate 10 nM,0.00
same,FRET response amplitude,mGluR2 [1]; Glutamate 100 nM,0.00
same,FRET response amplitude,mGluR2 [1]; Glutamate 3 uM,0.13 and 0.11 and 0.12 and 0.09
same,FRET response amplitude,mGluR2 [1]; Glutamate 10 uM,0.41 and 0.51 and 0.46 and 0.30
same,FRET response amplitude,mGluR2 [1]; Glutamate 100 uM,0.98 and 1.00 and 0.985
same,FRET response amplitude,mGluR2 [1]; Glutamate 1 mM,1.00
same,FRET response amplitude,mGluR2 [2]; Glutamate 10 nM,0.00
same,FRET response amplitude,mGluR2 [2]; Glutamate 100 nM,0.00
same,FRET response amplitude,mGluR2 [2]; Glutamate 100 uM,0.97 and 0.96 and 0.95 and 0.92 and 1.04 and 0.99 and 1.01
same,FRET response amplitude,mGluR2 [2]; Glutamate 1 mM,1.00
same,FRET response amplitude,mGluR3-3xTM4; Glutamate 1 nM,0.00
same,FRET response amplitude,mGluR3-3xTM4; Glutamate 100 nM,0.20 and 0.12 and 0.17 and 0.16 and 0.13 and 0.21
same,FRET response amplitude,mGluR3-3xTM4; Glutamate 1 uM,0.69 and 0.42 and 0.65 and 0.66
same,FRET response amplitude,mGluR3-3xTM4; Glutamate 10 uM,0.75 and 0.99 and 0.89
same,FRET response amplitude,mGluR3-3xTM4; Glutamate 100 uM,0.80 and 0.96
same,FRET response amplitude,mGluR3-3xTM4; Glutamate 1 mM,1.00
same,EC50,mGluR3-3xTM4; [7],0.56 ± 0.1 µM
same,% Dimerization,mGluR3-C127A-3xTM4,75.71% and 66.43% and 55.31% and 68.06% and 59.35% and 70.85%
same,% Dimerization,"mGluR3-C127A-I788A; SNAP-mGluR3-C127A-I788A in presence of the ligand, single replicates per experiment day",41.49% and 28.78% and 34.64% and 33.27% and 41.72% and 37.93%
same,effect of ligand on dimerization (SiMPull),mGluR3-C127A-I788A; saturating concentration,no difference
same,FRET response amplitude,mGluR3-I788A [3]; Glutamate 10 nM,0.00
same,FRET response amplitude,mGluR3-I788A [3]; Glutamate 1 uM,0.60 and 0.66 and 0.55
same,FRET response amplitude,mGluR3-I788A [3]; Glutamate 10 uM,0.97 and 1.00 and 0.86
same,FRET response amplitude,mGluR3-I788A [3]; Glutamate 100 uM,1.00
same,FRET response amplitude,mGluR3-I788A [3]; Glutamate 1 mM,1.00
same,EC50,mGluR3-I788A [3]; [7],0.66 ± 0.05 µM
same,Calcium response amplitude,mGluR3-I788A [4]; Glutamate 10 nM,0.00
same,Calcium response amplitude,mGluR3-I788A [4]; Glutamate 1 uM,0.60 and 0.66 and 0.55
same,Calcium response amplitude,mGluR3-I788A [4]; Glutamate 10 uM,0.97 and 1.00 and 0.86
same,Calcium response amplitude,mGluR3-I788A [4]; Glutamate 100 uM,1.00
same,Calcium response amplitude,mGluR3-I788A [4]; Glutamate 1 mM,1.00
same,EC50,"mGluR3-I788A [4]; read-out: Glutamate EC50, calcium imaging, normalized to saturating (1 mM) glutamate, unit inferred",10.43 ± 0.1 µM
